One compound from patent publication US20150297609A1, “STERILE OPHTHALMIC PHARMACEUTICAL SUSPENSIONS” (SENTISS PHARMA PVT. LTD., priority 2012, published 2015) can be followed below.

The nature of the data set: Particle size analysis of brinzolamide precipitated after autoclaving. In kind it is physicochemical. The conditions noted are these: precipitated during cooling after autoclaving, before size reduction. From the text: The precipitated brinzolamide is preferably in partially amorphous or crystalline form, preferably in crystalline form, more preferably in highly crystalline form. The particles are preferably in the form of fine particles. More preferably the fine particulate has an average particle size of less than 100 μm, more preferably less than 50 μm. The particle size can be reduced further by sonication to an average particle size less than […], more preferably less than 30 pm or 20 pm. Any method can be used to determine particle size distribution. One preferred method is to use a light scattering or Coulter counter method. It is preferred that 90% of the particles (D(0.9)) be less than 15 pm, more preferably, D(0.9) is in the range of 10-15 pm. It is preferred that 100% of the particles (D(1)) be less than 30 pm, more preferably less than about 20 pm.
During autoclaving due to high temperature and pressure, brinzolamide goes in solution. Upon completion of the autoclave cycle, during cooling, brinzolamide starts precipitating out. Brinzolamide forms needle shaped crystals of 1000 to 3000 microns. These needle shaped crystals of brinzolamide are further reduced in fine crystalline form to be used in the present invention formulation and the reduced particle size is as per table 3.
This particle size is further reduced to […] through rapid cooling with stirring. […]

On to `CCN[C@H]1CN(CCCOC)S(=O)(=O)c2sc(S(N)(=O)=O)cc21` [API, (R)-(+)-4-ethylamino-2-(3-methoxypropyl)-3,4-dihydro-2H-thieno[3,2-e]-1,2-thiazine-6-sulfonamide-1,1-dioxide], for which the “size of needle shaped crystals” value was in the range of 1000 to 3000 microns.
